Experimental data published in ChEMBL document CHEMBL4270551, “Biological evaluation and structure-activity relationships of imidazole-based compounds as antiprotozoal agents” (Eur J Med Chem, 2018).
Active and inactive are the calls of the source. The rule behind the calls is not given here.

How the values were obtained:
Plasmodium falciparum = test: Antiprotozoal activity against erythrocytic stage of chloroquine and pyrimethamine resistant Plasmodium falciparum K1 assessed as reduction in [3H]-hypoxanthine incorporation preincubated for 24 hrs followed by [3H]-hypoxanthine addition measured after 24 hrs by scintillation counting method; format: functional, organism-based
[1] = system: Trypanosoma brucei rhodesiense; test: Antiprotozoal activity against Trypanosoma brucei rhodesiense STIB900 trypomastigote after 72 hrs by Alamar Blue assay; format: functional, organism-based; settings: STIB900, 72 h
Leishmania donovani = test: Antileishmanial activity against Leishmania donovani MHOM/ET/67/L82 axenic amastigotes after 72 hrs by alamar blue staining based fluorescence assay; format: functional, organism-based; settings: MHOM/ET/67/L82, 72 h
[2] = Cytotoxicity against rat L6 cells after 72 hrs by alamar blue staining based fluorescence assay; format: cell-based
[3] = Selectivity index, ratio of CC50 for rat L6 cells to IC50 for Leishmania donovani MHOM/ET/67/L82 axenic amastigotes; format: toxicity; settings: read-out: Ratio CC50/IC50
[4] = biological target: Sterol 14-alpha demethylase (Trypanosoma cruzi (strain CL Brener)) (UniProt Q7Z1V1); test: Binding affinity to Trypanosoma cruzi CYP51 at 5 to 10 uM by 96-well based UV-vis spectroscopic method
Chain of Sterol 14-alpha demethylase (Trypanosoma cruzi (strain CL Brener)) (Q7Z1V1 whole entry, looked up): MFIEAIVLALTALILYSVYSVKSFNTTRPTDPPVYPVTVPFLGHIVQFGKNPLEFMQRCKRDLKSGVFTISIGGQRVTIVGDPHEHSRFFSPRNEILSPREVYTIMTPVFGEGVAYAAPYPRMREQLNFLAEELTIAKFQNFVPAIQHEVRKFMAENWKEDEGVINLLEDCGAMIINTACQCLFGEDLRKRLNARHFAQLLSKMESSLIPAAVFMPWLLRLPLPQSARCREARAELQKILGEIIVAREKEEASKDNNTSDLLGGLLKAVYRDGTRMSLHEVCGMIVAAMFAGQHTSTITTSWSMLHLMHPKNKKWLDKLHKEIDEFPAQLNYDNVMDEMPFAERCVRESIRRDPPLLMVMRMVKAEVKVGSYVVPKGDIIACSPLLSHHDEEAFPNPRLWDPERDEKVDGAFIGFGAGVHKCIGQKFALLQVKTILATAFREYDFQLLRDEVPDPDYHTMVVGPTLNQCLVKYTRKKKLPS

Trypanosoma cruzi [5] = test: Antitrypanosomal activity against Trypanosoma cruzi Tulahuen strain C2C4 amastigote forms infected in rat L6 cells after 96 hrs by CPRG/Nonidet reagent based photometric method; format: functional, organism-based; settings: Tulahuen strain C2C4, L6, 96 h
[6] = Selectivity index, ratio of CC50 for rat L6 cells to IC50 for erythrocytic stage of chloroquine and pyrimethamine resistant Plasmodium falciparum K1; format: toxicity; settings: read-out: Ratio CC50/IC50
[7] = Selectivity index, ratio of CC50 for rat L6 cells to IC50 for Trypanosoma cruzi Tulahuen strain C2C4 amastigote forms infected in rat L6 cells; format: toxicity, cell-based; settings: read-out: Ratio CC50/IC50
[8] = Selectivity index, ratio of CC50 for rat L6 cells to IC50 for Trypanosoma brucei rhodesiense STIB900 trypomastigote; format: toxicity; settings: read-out: Ratio CC50/IC50
Mus musculus [9] = test: Toxicity in Balb/c mouse infected with Trypanosoma cruzi CL Brener assessed as reduction in mobility at 25 mg/kg, ip bid for 4 days measured during compound dosing; format: organism-based; settings: in vivo, 96 h
Trypanosoma cruzi [10] = test: Antitrypanosomal activity against luciferase-expressing Trypanosoma cruzi CL Brener infected in Balb/c mouse assessed as reduction in parasitemia at 2.5 mg/kg, ip bid for 4 days by bioluminescence assay relative to control; format: functional; parameters: scale not given: the % may be the effect or the level left
Mus musculus [11] = test: Toxicity in Balb/c mouse infected with Trypanosoma cruzi CL Brener assessed as hunched posture at 25 mg/kg, ip bid for 4 days measured during compound dosing; format: organism-based; settings: in vivo, 96 h
[12] = biological target: Sterol 14-alpha demethylase (Trypanosoma cruzi (strain CL Brener)) (UniProt Q7Z1V1); test: Binding affinity to Trypanosoma cruzi CYP51 by quartz cuvette based UV-vis spectroscopic method
Mus musculus [13] = test: Toxicity in Balb/c mouse infected with Trypanosoma cruzi CL Brener assessed as lack of grooming at 25 mg/kg, ip bid for 4 days measured during compound dosing; format: organism-based; settings: in vivo, 96 h
Trypanosoma cruzi [14] = test: Potency index, ratio of benznidazole IC50 to test compound IC50 for Trypanosoma cruzi Tulahuen strain C2C4 amastigote forms infected in rat L6 cells; format: functional
Mus musculus [15] = test: Toxicity in Balb/c mouse infected with Trypanosoma cruzi CL Brener assessed as weight loss at 25 mg/kg, ip bid for 4 days measured during compound dosing; format: organism-based; settings: in vivo, 96 h

| Structure (SMILES) | IC50 (Plasmodium falciparum) | IC50 [1] | IC50 (Leishmania donovani) | CC50 at 72 h [2] | selectivity ratio [3] | Activity [4] | IC50 (Trypanosoma cruzi [5]) | selectivity ratio [6] | selectivity ratio [7] | selectivity ratio [8] | Activity (Mus musculus [9]) | Activity (Trypanosoma cruzi [10]) | Activity (Mus musculus [11]) | Activity [12] | Activity (Mus musculus [13]) | Ratio IC50 (Trypanosoma cruzi [14]) | Activity (Mus musculus [15]) |
| --- | --- | --- | --- | --- | --- | --- | --- | --- | --- | --- | --- | --- | --- | --- | --- | --- | --- |
| Clc1ccc(C(c2c[nH]cc2-c2ccc(Cl)c(Cl)c2)n2ccnc2)c(Cl)c1 (stereo unspecified) | 0.14 µM | 12.5 µM | 4.6 µM | 3.64 µM | 1 | Active | 0.021 µM | 26 | 173 | – | – | – | – | – | – | – | – |
| CSc1ccc(-c2c[nH]cc2C(c2ccc(Cl)cc2Cl)n2ccnc2)cc1 (stereo unspecified) | 0.24 µM | 15.8 µM | 5.12 µM | 7.22 µM | 1 | – | 0.043 µM | 30 | 168 | – | – | – | – | – | – | – | – |
| Cc1ccc(C(c2ccn(-c3ccc(F)cc3)c2)n2ccnc2)cc1 (stereo unspecified) | 2.17 µM | 15.8 µM | 27.6 µM | 60.6 µM | 2 | – | 2.96 µM | 28 | 21 | 4 | – | – | – | – | – | – | – |
| Fc1ccc(-n2ccc(C(c3ccccc3)n3ccnc3)c2)cc1 (stereo unspecified) | 5.36 µM | 20.4 µM | 31.5 µM | 104 µM | 3 | – | 6.14 µM | 19 | 17 | 5 | – | – | – | – | – | – | – |
| Clc1ccc(-c2c[nH]cc2C(c2ccc(Cl)cc2Cl)n2ccnc2)cc1 (stereo unspecified) | 0.16 µM | 17.3 µM | 3.77 µM | 9.61 µM | 3 | Active | 0.035 µM | 60 | 275 | – | – | – | – | – | – | – | – |
| COc1cc([C@@H]2c3cc4c(cc3[C@H](O)[C@H]3COC(=O)[C@H]23)OCO4)cc(OC)c1OC [PODOFILOX] | – | – | – | 0.007 µM | – | – | – | – | – | – | – | – | – | – | – | – | – |
| Cc1ccc(C(c2ccn(-c3ccc(Cl)cc3)c2)n2ccnc2)cc1 (stereo unspecified) | 2.53 µM | 53.5 µM | 12.5 µM | 42.6 µM | 3 | – | 1.72 µM | 17 | 25 | – | – | – | – | – | – | – | – |
| Fc1ccc(C(c2ccn(-c3ccc(Cl)cc3)c2)n2ccnc2)cc1 (stereo unspecified) | 3.98 µM | 36.7 µM | 15.8 µM | 63.1 µM | 4 | – | 3.75 µM | 16 | 17 | 2 | – | – | – | – | – | – | – |
| O=C(Cn1ccnc1[N+](=O)[O-])NCc1ccccc1 [BENZNIDAZOLE] | – | – | – | – | – | – | 1.65 µM | – | – | – | – | – | – | – | – | – | – |
| CC(C)(C)c1ccc(-c2c[nH]cc2C(c2ccc(Cl)cc2Cl)n2ccnc2)cc1 (stereo unspecified) | 0.38 µM | 41.2 µM | 6.98 µM | 22.9 µM | 3 | – | 12.8 µM | 60 | 2 | – | – | – | – | – | – | – | – |
| CCCCCCCCCCCCCCCCOP(=O)([O-])OCC[N+](C)(C)C [MILTEFOSINE] | – | – | 0.56 µM | – | – | – | – | – | – | – | – | – | – | – | – | – | – |
| Clc1ccc(C(c2c[nH]cc2-c2ccc(-c3ccncc3)cc2)n2ccnc2)c(Cl)c1 (stereo unspecified) | 0.29 µM | 9.74 µM | 7.52 µM | 15.5 µM | 2 | – | 2.42 µM | 53 | 6 | 2 | – | – | – | – | – | – | – |
| Clc1ccc(-c2c[nH]cc2C(c2ccc(Cl)cc2Cl)n2ccnc2)c(Cl)c1 (stereo unspecified) | 0.18 µM | 10.5 µM | 1.19 µM | 9.86 µM | 8 | Active | 0.034 µM | 55 | 290 | – | – | – | – | – | – | – | – |
| N#Cc1ccc(-c2c[nH]cc2C(c2ccc(Cl)cc2Cl)n2ccnc2)cc1 (stereo unspecified) | 0.66 µM | 11.7 µM | 8.75 µM | 15 µM | 2 | – | 10 µM | 23 | 2 | 1 | – | – | – | – | – | – | – |
| Clc1ccc(C(c2c[nH]cc2-c2ccc(-c3ccccc3)cc2)n2ccnc2)c(Cl)c1 (stereo unspecified) | > 11 µM | 17.7 µM | 12.3 µM | > 202 µM | – | – | 32.6 µM | – | – | – | – | – | – | – | – | – | – |
| c1ccc(C(c2ccn(-c3ccccc3)c2)n2ccnc2)cc1 (stereo unspecified) | 4.14 µM | 35.1 µM | 14.5 µM | 80.8 µM | 6 | – | 3.91 µM | 20 | 21 | 2 | – | – | – | – | – | – | – |
| O=[N+]([O-])c1ccc(-c2c[nH]cc2C(c2ccc(Cl)cc2Cl)n2ccnc2)cc1 (stereo unspecified) | 0.48 µM | 5.57 µM | 7.82 µM | 16.9 µM | 2 | – | 3.22 µM | 35 | 5 | 3 | – | – | – | – | – | – | – |
| Fc1ccc(C(c2ccn(-c3ccc(F)cc3)c2)n2ccnc2)cc1 (stereo unspecified) | 4.44 µM | 43.8 µM | 45.9 µM | 87.1 µM | 2 | – | 4.53 µM | 20 | 19 | 2 | – | – | – | – | – | – | – |
| Fc1ccc(-n2ccc(C(c3ccc(Cl)cc3)n3ccnc3)c2)cc1 (stereo unspecified) | 3.16 µM | 16.9 µM | 10.4 µM | 47.5 µM | 5 | – | 3.3 µM | 15 | 14 | 3 | – | – | – | – | – | – | – |
| Clc1ccc(-c2c[nH]cc2C(c2ccc(Cl)cc2)n2ccnc2)cc1 (stereo unspecified) | 0.13 µM | 15.9 µM | 7.01 µM | 4.83 µM | 1 | – | 0.057 µM | 37 | 85 | – | – | – | – | – | – | – | – |
| Clc1ccc(C(c2c[nH]cc2-c2cccc3ccccc23)n2ccnc2)c(Cl)c1 (stereo unspecified) | 0.33 µM | 12 µM | 1.91 µM | 12.3 µM | 6 | – | 0.096 µM | 37 | 128 | 1 | – | – | – | – | – | – | – |
| Nc1nc(N)nc(Nc2ccc([As]3SCC(CO)S3)cc2)n1 (stereo unspecified) [MELARSOPROL] | – | 0.0088 µM | – | – | – | – | – | – | – | – | – | – | – | – | – | – | – |
| Cn1cc(-c2ccc(Cl)cc2)c(C(c2ccc(Cl)cc2Cl)n2ccnc2)c1 (stereo unspecified) | 0.17 µM | 36.5 µM | 4.3 µM | 5.23 µM | 1 | Active | 0.002 µM | 31 | 2620 | – | Non-Toxic | 98.5% | Non-Toxic | Active | Non-Toxic | 825 | Non-Toxic |
| FC(F)(F)c1ccc(-c2c[nH]cc2C(c2ccc(Cl)cc2Cl)n2ccnc2)cc1 (stereo unspecified) | 0.14 µM | 11.3 µM | 12 µM | 9.4 µM | – | – | 0.05 µM | 67 | 188 | – | – | – | – | – | – | – | – |
